Test results: patent US20250027930A1, “SMALL MOLECULES FOR REPROGRAMING ANTI-TUMOR IMMUNITY OF T CELLS” (THE SCRIPPS RESEARCH INSTITUTE, priority 2021, published 2025)

How the values were obtained:
OT-I splenocytes = assay: OT-I splenocyte culture with purine/pyrimidine pathway compounds; type: cell-based, mouse
Method: We therefore tested if purine and pyrimidine nucleotides have similar effects as N-Acetylneuraminic acid to help maintain less differentiated phenotypes of T cells during expansion. OT-I splenocytes were cultured with 500 nM […] peptide (OVA257-264) for three days at initial cell density of 1×10^6/mL to activate and expand the CD8+ T cell population. Different concentrations of the products or intermediates in purine or pyrimidine de novo synthesis pathways were added on day 3. The tested compounds include, e.g., guanosine, deoxyguanosine, adenosine, deoxyadenosine, inosine, xanthosine, orotidine, uridine, cytidine, deoxycytidine, thymidine, deoxythymidine, 5-Aminoimidazole-4-carboxamide ribonucleotide (AICAR), orotate, and dihydroorotate. The phenotype of expanded T cells were analyzed on day 5.

P14 cells = assay: P14 splenocyte in vitro activation, re-stimulation and expansion; type: cell-based, mouse; details: for Fold of proliferation, Normalized to W/O: P14 cells
OT-1 cells [1] = assay: OT-1 cells treated with K+ or p38i; type: cell-based, mouse
Description: We also tested two small molecules (KCl and p38i) reported in papers. (Science 2019, 363, (6434); Cancer Cell 2020, 37, (6), 818-833 e9).

OT-1 cells [2] = assay: OT-I-Tcf7GFP splenocyte screen: proliferation and Tim3−TCF-1+ ratio; type: cell-based, mouse; details: Day7; for Tim3^−TCF-1^+ ratio of CD8^+ T cells (%): w/o 2.6
Method: Cell number was recorded on day 3 and day 7. On day 7, cells were stained with anti-CD8a (PerCP-Cy5.5) and anti-Tim3 (BV421) antibodies for flow cytometry or plate reader analysis.
Because TCF1 expression positively correlates with T cell stemness, the greater signal of EGFP a T cell expresses, the less differentiated the T cell is. Furthermore, if the compound also facilitates T cells proliferation, there would be more T cells per well in comparison to the untreated control. Therefore, a compound that not only maintains TCF-1 expression but also facilitates T cell growth would produce the strongest green fluorescence intensity. […] GlcA stands for glucuronic acid.

OT-1 CD8+ T cells = assay: OT-1 splenocyte activation and expansion, day 7 flow cytometry; type: cell-based, mouse; details: OT-1 cells day 7; compared with fructose or sucrose
Method: Naïve splenocytes from OT-1 mice were stimulated in vitro with OVA257-264 (500 nM) and IL-2 (60 IU/mL) in the presence or absence of an added compound for 3 days at a density of 1 million/mL (100 uL/well in 96/well plate), then expanded for 4 days. On day 7, PD-1, Tim3 and TCF-1 expressions were assessed by flow cytometry by staining cells with anti-CD8a (PerCP-Cy5.5), anti-Tim3 (BV421) and anti-TCF-1 (AF488) antibodies. For adoptive transfer, 0.6M B16-OVA cells (6×10^5) were inoculated subcutaneously 3 to 5 days before transfer in C57BL/6. On the day of adoptive transfer, mice were irradiated with 5 Gy X-ray, randomized according to tumor size, and intravenously injected with 0.2-0.3M of CD8+OT-1 T cells (2×10^5) expanded under different conditions, followed by administration of 50000 IU IL-2 every 12 h for four days. In the control group, mice were injected with cell-free vehicle only. For assessment of adoptive transfer of OT-1 CD8+ T cells activated and expanded by contacting the cells with fructose, on day 9 after transfer, anti-PD-1 (100 ug/mouse) was administered to the mice that had received T cell transfer. For assessment of adoptive transfer of OT-1 CD8+ T cells activated and expanded by contacting cells with Neu5Ac, on day 14 and day 21 after transfer, anti-PD-1 (100 ug/mouse) was administered to the mice that had received T cell transfer. The tumor growth was monitored every 3 to 4 days by measuring tumor size. Percent survival was also monitored and recorded within a period of 40 days post treatment. To evaluate tumor infiltrating OT-1 T cells, 0.6M B16-OVA cells (6×10^5) were inoculated subcutaneously 3 to 5 days before transfer in C57BL/6. […] Tumors were then isolated and assessed for percentage of OT-I T cells from the total CD8+ T cells and OT-1 T cell number per gram of tumor tissue. […] On day 7 or 8 cells were taken and analyzed by assessment of ROS, NADPH/NADP+ ratio, and GSH/GSSG ratio.

B16-OVA tumor = type: in vivo, mouse; details: adoptive transfer of sugar-treated OT-1 T cells; vs untreated T cells
Method: Naïve splenocytes from OT-1 mice were stimulated in vitro with OVA257-264 (500 nM) and IL-2 (60 IU/mL) in the presence or absence of an added compound for 3 days at a density of 1 million/mL (100 uL/well in 96/well plate), then expanded for 4 days. On day 7, PD-1, Tim3 and TCF-1 expressions were assessed by flow cytometry by staining cells with anti-CD8a (PerCP-Cy5.5), anti-Tim3 (BV421) and anti-TCF-1 (AF488) antibodies. For adoptive transfer, 0.6M B16-OVA cells (6×10^5) were inoculated subcutaneously 3 to 5 days before transfer in C57BL/6. On the day of adoptive transfer, mice were irradiated with 5 Gy X-ray, randomized according to tumor size, and intravenously injected with 0.2-0.3M of CD8+OT-1 T cells (2×10^5) expanded under different conditions, followed by administration of 50000 IU IL-2 every 12 h for four days. In the control group, mice were injected with cell-free vehicle only. For assessment of adoptive transfer of OT-1 CD8+ T cells activated and expanded by contacting the cells with fructose, on day 9 after transfer, anti-PD-1 (100 ug/mouse) was administered to the mice that had received T cell transfer. For assessment of adoptive transfer of OT-1 CD8+ T cells activated and expanded by contacting cells with Neu5Ac, on day 14 and day 21 after transfer, anti-PD-1 (100 ug/mouse) was administered to the mice that had received T cell transfer. The tumor growth was monitored every 3 to 4 days by measuring tumor size. Percent survival was also monitored and recorded within a period of 40 days post treatment. To evaluate tumor infiltrating OT-1 T cells, 0.6M B16-OVA cells (6×10^5) were inoculated subcutaneously 3 to 5 days before transfer in C57BL/6. On the day of adoptive transfer, mice were irradiated with 5 Gy X-ray, randomized according to tumor size, and intravenously injected with 0.2-0.3M of CD8+OT-1 T cells (2×10^5) expanded under different conditions, followed by administration of 50000 IU IL-2 every 12 h for four days. Tumors were then isolated and assessed for percentage of OT-I T cells from the total CD8+ T cells and OT-1 T cell number per gram of tumor tissue. To evaluate apoptosis, Naïve OT-1 splenocytes were stimulated by OVA257-264 (500 nM) without IL-2 in the presence of absence of sugars for 5 days followed by using Annexin V Apoptosis detection kit (Biolegend). […] To evaluate other cellular characteristics, naïve OT-1 splenocytes were stimulated by OVA257-264 (500 nM) with IL-2 (60 IU/mL) in the presence or absence of sugars for 7 or 8 days. On day 7 or 8 cells were taken and analyzed by assessment of ROS, NADPH/NADP+ ratio, and GSH/GSSG ratio.

P14 CD8+ T cells = type: in vivo, mouse; details: 14 dpi LCMV-Cl13; cells treated in vitro, vs untreated

Question: With `N#Cc1cc(Nc2ncc3c(n2)CCCCC3=O)cs1` [Inhibitor G6PDi-1, reference compound] as the molecule, how does the cell proliferation (OT-I splenocytes; added on day 3, analyzed day 5) read?
Answer: without significant impact on cell proliferation

Question: What about the “increase of the proportion of Tim3−TCF1+ T cells by a factor” value (OT-I splenocytes; added on day 3, analyzed day 5) of the same molecule?
Answer: 1.5

Question: Which “slowed down T cell proliferation” value (P14 cells; compared to untreated T cells) does the source give for `[Cl-].[K+]` [K^+, KCl] here?
Answer: 10-20%

Question: And the “Tim3−TCF-1+ ratio of OT-1 cells (in words)” value (OT-1 cells [1])?
Answer: increased

Question: And the “proliferation of OT-1 cells (in words)” value (OT-1 cells [1])?
Answer: slightly inhibit

Question: And the “Proliferation fold, Normalized to W/O” value (OT-1 cells [1]; Day 7, 40 mM, OT-1 cells)?
Answer: 0.87 fold

Question: What about the “Tim3^−TCF-1^+ ratio of CD8^+ T cells (%)” value (OT-1 cells [1]; Day 7, 40 mM, W/O 9.5) of the same molecule?
Answer: 80.7%

Question: Which “Tim3^−TCF-1^+ ratio of CD8^+ T cells (%)” value (OT-1 cells [2]; 60 mM) does the source give for `OC[C@H]1O[C@@H](O[C@H]2[C@H](O)[C@@H](O)C(O)O[C@@H]2CO)[C@H](O)[C@@H](O)[C@H]1O` (some centres unmarked) [Lactose, lactose] here?
Answer: 25.6%

Question: What about the activity at 60000 µM (OT-1 cells [2]; Mus musculus, Splenocyte, 168 h, 60 mM, OT-1 cells, read-out: Proliferation fold, Normalized to W/O) of the same molecule?
Answer: 63%

Question: What about the “Fold of proliferation, Normalized to W/O” value (P14 cells; Day6, 60 mM) of the same molecule?
Answer: 1.87 fold

Question: And the “Tim3^−TCF-1^+ ratio of CD8^+ T cells (%)” value (P14 cells; Day6, 60 mM, w/o 55.0)?
Answer: 79.4%

Question: What about the “Fold of proliferation, Normalized to W/O” value (P14 cells; Day9, 60 mM) of the same molecule?
Answer: 1.76 fold

Question: And the “Tim3^−TCF-1^+ ratio of CD8^+ T cells (%)” value (P14 cells; Day9, 60 mM, w/o 3.5)?
Answer: 23.7%

Question: And the “percentage of Tim3−TCF-1+ CD8+ T cells (in words)” value (OT-1 CD8+ T cells)?
Answer: increased the percentage of Tim3−TCF-1+ CD8+ T cells but at a lower level

Question: What about the “capabilities to control tumor growth” value (B16-OVA tumor) of the same molecule?
Answer: significantly better

Question: What about the “percentages and total numbers of expanded virus-specific P14 CD8+ T cells in the spleen and liver” value (P14 CD8+ T cells) of the same molecule?
Answer: significantly higher

Question: Which results are given for `CCN(c1cc(-c2ccc(CN3CCOCC3)cc2)cc(C(=O)NCc2c(C)cc(C)[nH]c2=O)c1C)C1CCOCC1` [Taz, Tazemetostat]?
Answer: cell survival when added on day 0 together with OVA257-264 peptide (OT-I CD8 T cells): all cells were found dead; fold increase in progenitor exhausted cells (OT-I CD8 T cells; day 7, Taz (3-7), 400 nM): 2.5-3.5 fold; progenitor exhausted cells (Tim3^−TCF-1^+) (OT-I CD8 T cells; day 7, Taz (3-7), 400 nM, without Taz 8.47%): 27.7%

Question: Which “Tim3^−TCF-1^+ ratio of CD8^+ T cells (%)” value (OT-1 cells [2]; 80 mM) does the source give for `OC[C@H]1O[C@H](O[C@H]2O[C@H](CO)[C@@H](O)[C@H](O)[C@H]2O)[C@H](O)[C@@H](O)[C@@H]1O` [Trehalose, trehalose] here?
Answer: 35.4%

Question: What about the activity at 80000 µM (OT-1 cells [2]; Mus musculus, Splenocyte, 168 h, 80 mM, OT-1 cells, read-out: Proliferation fold, Normalized to W/O) of the same molecule?
Answer: 84%

Question: What about the “Fold of proliferation, Normalized to W/O” value (P14 cells; Day6, 80 mM) of the same molecule?
Answer: 1.42 fold

Question: What about the “Tim3^−TCF-1^+ ratio of CD8^+ T cells (%)” value (P14 cells; Day6, 80 mM, w/o 55.0) of the same molecule?
Answer: 83.2%

Question: And the “Fold of proliferation, Normalized to W/O” value (P14 cells; Day9, 80 mM)?
Answer: 1.47 fold

Question: And the “Tim3^−TCF-1^+ ratio of CD8^+ T cells (%)” value (P14 cells; Day9, 80 mM, w/o 3.5)?
Answer: 34.6%

Question: With `Nc1nc2c(ncn2[C@@H]2O[C@H](CO)[C@@H](O)[C@H]2O)c(=O)[nH]1` [guanosine] as the molecule, how does the cell proliferation (OT-I splenocytes; added together with N-Acetylneuraminic acid on day 3, analyzed day 5) read?
Answer: without significant impact on cell proliferation
